Laboratory results taken from publication PMC9356039, “Multifunctional synthetic nano-chaperone for peptide folding and intracellular delivery” (Nature Communications, 2022).

Experiments:
HepG2 cells = experiment: CCK-8 cell viability; format: cell-based, human; settings: 24 h, 50
Method: Human liver cancer cell line HepG2 were grown in DMEM containing 10% FBS and 1% penicillin/streptomycin at 37 °C in a humidified atmosphere of 5% CO2. HepG2 cells (1.2 × 10^5 cells/well) were seeded in a 4-well glass plate for 24 h. Then, SNCPs@st-p53pep (0.02 mg/mL) and st-p53pep alone (2 μM) were added to each well in a serum-free medium for 4 h. After incubation, the cells were carefully rinsed with PBS, and the medium was replaced with a serum-containing fresh medium. After the nucleus was stained with Hoechst 33342 staining kit by manufacturer’s protocol, bright field and fluorescence images were obtained by using a DeltaVision Elite Microscopy System (GE Healthcare, USA). To observe the distribution of SNCP8 and st-p53pep in cells, TAMRA-labeled SNCP8@FAM-labeled st-p53pep (0.25 mg/mL) was treated in the same manner instead of SNCP8@st-p53pep. And then, the Mander’s overlap coefficient (MOC) was calculated in the Image J program (ver. 1.52a) via the JACoP plugin to identify co-localization between fluorescence signals over time. […] The cell viability was determined using cell counting kit-8 (CCK-8) assay by monitoring absorbance at 450 and 670 nm wavelength measured using a microplate reader (Molecular Devices, Inc., USA). The EC50 values of SNCPs@st-p53pep were determined by the logistic curve-fitting method with Origin (OriginLab, USA).

[1] = CD spectroscopy, α-helicity by CONTIN-LL; format: physicochemical; settings: for helix %: CONTINLL from CD spectra, Avg of replicates Ⅰ-Ⅲ; for α-Helicity, helix % avg: CD spectra, CONTINLL, summary table, mean of n = 3
Method: CD spectra were measured using a J-810 spectropolarimeter (JASCO, Japan). Spectra were recorded from 250 nm to 190 nm wavelength using a 1 cm path-length cuvette. Scans were repeated five times and averaged. Molar ellipticity was calculated per amino acid residue. The concentrations of SNCP and p53pep were 0.2 mg/mL and 20 μM, respectively. All sample suspensions were incubated at least for 2 days at room temperature before CD measurement. To perform temperature-dependent CD experiments, the spectra were recorded at 10 °C interval over a temperature range of 25 to 75 °C, with 30 min incubation time to reach equilibrium at each temperature. The α-helicity of peptides was calculated by using the CONTIN-LL algorithms provided from the DICHROWEB server.

[2] = Water solubility (in words); format: physicochemical
[3] = molecular target: T1, MDM2_1-118 (hMDM2 protein) (Homo sapiens, UniProt Q00987); experiment: Fluorescence polarization binding affinity; settings: peptide 50 nM, PBS pH 7.4, 0.01% Tween20, 10 mM DTT, 2% DMSO, room temperature, N = 3, mean ± SD
T1 construct: purchased SignalChem (Canada)
Method: Each of p53pep and st-p53pep (50 nM) were incubated with MDM2_1-118 with various concentrations in binding assay buffer (PBS pH 7.4 with 0.01% Tween20, 10 mM DTT, 2% DMSO) at room temperature. Binding affinity was measured by fluorescence polarization on a Biotek Synergy Neo2 multi-mode microplate reader. Kd values were determined by nonlinear regression analysis.

proteinase K [4] = molecular target: proteinase K (Parengyodontium album, UniProt P06873); experiment: in vitro; format: in vitro ADME
Method: (§1) To investigate whether SNCP8@st-p53pep could effectively suppress tumor growth in vivo, we evaluated the anti-tumor effect of SNCP8@st-p53pep using human liver cancer (HepG2) xenograft bearing mouse model. Mice were treated with SNCP8@st-p53pep and controls by intratumoral injection every three days and tumor volume changes were monitored for 14 days. […] Next, we monitored distribution of TAMRA-SNCP8 (red), FAM-st-p53pep (green), and TAMRA-SNCP8@FAM-st-p53pep in the tumor-bearing mouse overtime after intratumoral injection. As shown in Fig. 5b and Supplementary Fig. 20, green fluorescence signal in the tumor treated with TAMRA-SNCP8@FAM-st-p53pep slowly diminished during 72 h, while signal in tumor treated with FAM-st-p53pep alone quickly disappeared within 24 h. […] To compare the lifetime of st-p53pep in tumor more precisely, we calculated the half-life (t1/2) of green fluorescence decay for each sample by analyzing region of interest (ROI) on the basis of whole-body fluorescence image (Fig. 5c).
(§2) Supplementary Figure 19. The proteolytic degradation of p53pep. Semi-quantitative analysis of protease-mediated degradation of p53pep by using the matrix-assisted laser desorption ionization time-of-flight mass spectrometry ( MALDI-TOF MS).
(§3) (a) Mass spectrum of p53pep without SNCP8 (left) and with SNCP8 (right) over 12 h.
(§4) The cumulative remaining p53pep in short (b) and long (c) periods in different conditions: p53pep (circle) and SNCP8@p53pep (square). Rapid degradation of free p53pep within 1 min is observed while the degradation of p53pep inside the SNCP8 […]
(§5) proteinase K (N = 3, biologically independent samples; mean ± SD).
(§6) (1 picture or pasted object on this page, not shown here)

proteinase K [5] = experiment: in vitro; format: in vitro ADME; settings: isolated enzyme proteinase k
Method: as §1, §2, §3, §4, §5, §6

[6] = molecular target: synthetic p53 peptide (p53pep); experiment: fluorescence polarisation; 50 nM FAM-labelled peptide incubated with MDM2(1-118) at various concentrations; PBS pH 7.4 with 0.01% Tween20, 10 mM DTT, 2% DMSO; room temperature; Kd by nonlinear regression
[7] = molecular target: stapled p53 peptide prepared by click reaction (st-p53pep); experiment: as above
[8] = molecular target: MDM2(1-118), a part of the target protein possessing the p53pep binding site (UniProt Q00987)
Chain of MDM2(1-118), a part of the target protein possessing the p53pep binding site (UniProt Q00987) (Q00987 1-118): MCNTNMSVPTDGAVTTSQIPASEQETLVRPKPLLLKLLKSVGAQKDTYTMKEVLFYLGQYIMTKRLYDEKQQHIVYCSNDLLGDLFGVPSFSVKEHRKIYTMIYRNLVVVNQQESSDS

Chain of MDM2(1-118), a part of the target protein possessing the p53pep binding site (from UniProt Q00987 1-118) (domain or fragment) (Q00987 1-118): as above
Chain of proteinase K (Parengyodontium album, UniProt P06873) (P06873 106-384, species assumed): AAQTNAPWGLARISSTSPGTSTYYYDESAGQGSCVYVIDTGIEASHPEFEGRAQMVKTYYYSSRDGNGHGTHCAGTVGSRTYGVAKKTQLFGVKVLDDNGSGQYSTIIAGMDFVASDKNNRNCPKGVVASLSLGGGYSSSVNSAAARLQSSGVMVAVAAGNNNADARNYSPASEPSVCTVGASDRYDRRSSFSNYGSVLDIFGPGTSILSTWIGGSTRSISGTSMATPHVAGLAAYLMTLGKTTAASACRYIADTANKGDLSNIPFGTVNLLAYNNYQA
T1 sequence (Q00987 1-118): as the sequence (Q00987 1-118) above

C#CCCC(=O)NCCCC[C@@H](NC(=O)[C@H](Cc1ccccc1)NC(=O)[C@@H](NC(=O)[C@H](CCC(N)=O)NC(=O)[C@H](CCC(N)=O)NC(=O)[C@H](CO)NC(=O)[C@H](CCC(N)=O)NC(=O)CNC(=O)CNC(=O)c1ccc2c(c1)C(=O)OC21c2ccc(O)cc2Oc2cc(O)ccc21)[C@@H](C)O)C(=O)N[C@@H](CC(N)=O)C(=O)N[C@@H](CC(C)C)C(=O)N[C@@H](Cc1c[nH]c2ccccc12)C(=O)N[C@@H](CCCNC(=N)N)C(=O)N[C@@H](CC(C)C)C(=O)N[C@@H](CC(C)C)C(=O)N[C@@H](CCCN=[N+]=[N-])C(=O)N[C@@H](CCC(N)=O)C(=O)N[C@@H](CC(N)=O)C(N)=O [p53pep]
cell viability at corresponding dose (HepG2 cells): more than 80% | helix % ([1]; 25C): 39.4% | α-Helicity, helix % avg ([1]; 25 ℃): 39.4% | helix % ([1]; 35C): 35.9% | α-Helicity, helix % avg ([1]; 35 ℃): 35.9% | helix % ([1]; 45C): 37.5% | α-Helicity, helix % avg ([1]; 45 ℃): 37.5% | helix % ([1]; 55C): 36.5667% | helix % ([1]; 65C): 34.0667% | helix % ([1]; 75C): 35.9667% | solubility in water (in words) [2]: insoluble in water | Kd [3]: 0.0806 ± 0.00233 µM | time of degradation by proteinase K (proteinase K [4]): ≤ 1 min | remaining at 1 min (proteinase K [5]): 16.9% | remaining at 0.05 h (proteinase K [5]): 8.39% | remaining at 5 min (proteinase K [5]): 5.56% | remaining at 10 min (proteinase K [5]): 3.21% | remaining at 0.5 h (proteinase K [5]): 6.68% | remaining at 1 h (proteinase K [5]): 9.04% | remaining at 12 h (proteinase K [5]): 3.85%

MDM2(1-118), a part of the target protein possessing the p53pep binding site (from UniProt Q00987 1-118) (domain or fragment)
Kd [6]: 0.0806 µM | Kd [7]: 0.0277 µM

synthetic p53 peptide (p53pep)
viability of HepG2 cells (CCK-8) at the corresponding dose of SNCP8@p53pep (unstapled peptide delivered in SNCP8) [8]: > 80%
